The numbers were not newly measured in patent US20040067915A1, “Method to treat cardiofibrosis with a combination of an angiotensin II antagonist and spironolactone” (G.D. Searle & Co., priority 1995, published 2004), which cites them from elsewhere.

For series [1] the following is noted: hypertensive patients, continued ACE inhibition; cited from earlier work.
Series [2] concerns angiotensin II. The following applies: binding experiments, functional assays and in vivo tests; cited from earlier work.
Series [3] relates to myocardial fibrosis in animal models. The settings on record: cited from earlier work.

Where two headings read alike, the source gives them in different places.

Take `C[C@H](CS)C(=O)N1CCC[C@H]1C(=O)O` [captopril]: the plasma aldosterone entry in series [1] is recorded as “gradual return of plasma aldosterone to baseline levels”.
As for `CCCCc1nc(Cl)c(CC(=O)[O-])n1Cc1ccccc1Cl.[Na+]` [sodium salt of 2-n-butyl-4-chloro-1-(2-chlorobenzyl)imidazole-5-acetic acid], in series [2], the “angiotensin II antagonist activity” value is recorded as “specific competitive angiotensin II antagonist activity”.
Turning to `CC(=O)S[C@@H]1CC2=CC(=O)CC[C@]2(C)[C@H]2CC[C@@]3(C)[C@@H](CC[C@@]34CCC(=O)O4)[C@H]12` [spironolactone, 17-hydroxy-7α-mercapto-3-oxo-17α-pregn-4-ene-21-carboxylic acid γ-lactone acetate], the myocardial fibrosis result in series [3] is “prevents myocardial fibrosis in animal models”; in series [3] (listed as Spironolactone), “prevent fibrosis in animal models irrespective of the development of left ventricular hypertrophy and the presence of hypertension”.
